Laboratory results from patent US20100029554A1, “Composition and Methods for Treatment of Congestive Heart Failure” (Amylin Pharmaceuticals, Inc., priority 2006, published 2010).
Where no end group is shown, it is not given here.

What was measured:
NIH:Swiss mice = test: Food intake assay; type: in vivo, mouse; settings: IP
Protocol: All mice (NIH:Swiss mice) are housed in a stable environment of 22 (±2)° C., 60 (±10)% humidity and a 12:12 light:dark cycle; with lights on at 0300. Mice are housed in groups of three in standard cages with ad libitum access to food (Teklad: LM 485; Madison, Wis.) and water except as noted, for at least two weeks before the experiments.
All experiments are conducted between the hours of 0700 and 0900. The mice are food deprived (food removed at 1530 hr from all animals on day prior to experiment). […] The food pellet is weighed at 30-minute, 1-hr, and 2-hr intervals to determine the amount of food eaten.
Significant test sample effects are identified by ANOVA (p<0.05). Where a significicant difference exists, test means are compared to the control mean using Dunnett's test. One-way ANOVA with Dunnett's post test is performed using GraphPad Prism version 3.01 for Windows, GraphPad Software, San Diego Calif.

NH/Swiss mice = test: Glucose lowering assay; type: in vivo, mouse; settings: IP
Protocol: Female NH/Swiss mice (˜8-20 weeks of age), (Harlan, Indianapolis, Ind., USA), housed 3 mice per cage, are allowed ad libitum access to food and water until the start of the experiment. At two hours prior to treatment, access to food is restricted.
At the time of treatment, the tip of the tail is pricked with a needle to obtain 1 μl blood as a “pre-treatment” control blood sample. Immediately thereafter, each mouse is injected intraperitoneally (IP) with a test sample (1 nmol/kg or 2 nmol/kg) or 200 μl vehicle (10% DMSO saline). Additional blood samples are collected at 30, 60, 120, 180, and 240 minutes after injection.
Blood glucose is measured with a glucose oxidase biosensor (OneTouch® Ultra® (LifeScan, Inc., a Johnson & Johnson Company, Milpitas, Calif.)). At each time point, the effect of the test sample is expressed as the percent change in blood glucose relative to mice injected with vehicle only. Test samples and vehicle controls are also compared to their respective “pre-treatment” controls.
Significant test sample effects are identified by ANOVA (p<0.05). Where a significant difference existed, test means are compared to the control mean with Dunnett's post test using GraphPad Prism version 4.00 for Windows, GraphPad Software, San Diego Calif. USA, www.graphpad.com).

[1] = test system: Sprague Dawley rats with MI-induced CHF; test: MI-induced CHF animal model; type: in vivo, rat; settings: subcutaneous infusion 11 weeks
Protocol: Sprague Dawley rats undergo left coronary artery ligation to induce myocardial infarction (MI) and subsequently congestive heart failure. Some rats undergo sham surgery. Starting two weeks after coronary ligation, rats are treated with GLP-1 (2.5 or 25 pmol/kg/min), [Leu^14]-Exendin-4 amide (1.67 or 5 pmol/kg/min) or vehicle for 11 weeks via subcutaneous infusion. Cardiac function and remodeling are assessed by echocardiography. At the end of study, rats undergo treadmill testing, hemodynamic measurements and fasting (12 hour fasting) insulin and glucose concentration were measured and the Homeostasis Model Assessment (HOMA), a major index for insulin resistance, is calculated. Peak Oxygen uptake during exercise is measured by indirect calorimetry.
Transthoracic Doppler echocardiography is performed. Briefly, short-axis images are obtained at the papillary muscle level and 2D guided M-mode tracing are recorded at a speed of 100 mm/s. Left ventricular end-diastolic (LVEDD) and end-systolic dimensions (LVESD) are measured according the American Society for Echocardiography leading-edge method. Left atrial volume (LAV) and ejection fraction (LVEF) are measured and calculated from the long-axis view.
Pulsed-wave Doppler spectra of mitral inflow are obtained from apical 5-chamber view. The sample volume is placed at the tip of the mitral leaflets and adjusted to the position of maximal velocity. The peak of early (E) and late filling waves (A) are measured and E/A ratio are calculated. […] FIG. 2A-C. […]
Designations “L” and “H” indicate low and high dose of drug, respectively. […] The end point for treadmill test is determined by rat's inability to keep the pace of treadmill and land on the electric shock grid for over 6 seconds. The exercise capacity (EC) is calculated as EC (kgm)=Body weight (kg)×degree of grade×running distance. Oxygen consumption (VO2), carbon dioxide production (VCO2) are measured as described. Within 1 minute after the treadmill test, plasma lactate and glucose are measured. The treadmill test is run and analyzed by one investigator who is blinded to the study.

[2] = test system: GLP/GIP/CT cyclase, RIN-m5F cells; test: GLP/GIP/CT Cyclase (RIN) assay; type: cell-based, rat; settings: cAMP, values without **
Protocol: GLP/GIP/CT Cyclase (RIN) Assay
(§1) Five μl of serially diluted peptides are transferred to the 384-well assay plate. Rat pancreas insulinoma cells (RIN-m5F) are detached from a tissue culture flask with Versene and washed once in buffer. Then RIN-m5F cells are resusupended in buffer at 2.5×10^6 cells/ml. Then 10 μl cells (2.5×10^4 cells) are added to all wells of the assay plate and cells are stimulated at room temperature in the dark for 30 minutes. The reaction is terminated with 10 μl of lysis buffer and incubated at room temperature for 4 hrs in the dark. cAMP content is measured using Perkin Elmer AlphaScreen™ cAMP assay kit and results are read on a Perkin Elmer Fusion fluorometer. The assay is completed in 384-well plates at 25 microliter volumes.

[3] = biological target: T1, GLP-1 receptors (RINm5f cell membranes) (Rattus norvegicus, UniProt P32301); test: Receptor binding assay, RBA GLP (RIN); settings: [125I] human GLP-1 displacement
T1 construct: RINm5f cells expressing endogenous GLP-1 receptors; endogenous in cells; host or cells: RINm5f cell membranes
T1 sequence (P32301 22-463): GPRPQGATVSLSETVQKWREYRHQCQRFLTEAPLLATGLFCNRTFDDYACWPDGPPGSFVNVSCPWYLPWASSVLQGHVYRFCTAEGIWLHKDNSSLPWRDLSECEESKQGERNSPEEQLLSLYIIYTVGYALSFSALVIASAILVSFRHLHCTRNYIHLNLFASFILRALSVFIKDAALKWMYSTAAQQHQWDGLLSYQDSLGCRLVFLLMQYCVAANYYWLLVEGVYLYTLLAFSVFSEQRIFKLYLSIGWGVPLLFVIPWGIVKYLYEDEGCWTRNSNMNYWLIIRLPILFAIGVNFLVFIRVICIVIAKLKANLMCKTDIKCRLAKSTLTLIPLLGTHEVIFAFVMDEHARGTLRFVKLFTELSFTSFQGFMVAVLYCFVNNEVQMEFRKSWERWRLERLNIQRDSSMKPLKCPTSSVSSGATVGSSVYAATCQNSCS
Description: The well contents are harvested onto 96 well glass fiber plates using a Perkin Elmer plate harvestor. Dried glass fiber plates are combined with scintillant and counted on a Perkin Elmer scintillation counter.

Plasma stability = type: in vitro ADME; settings: 20 μg/mL in plasma, 37° C., 0-5 hours
Protocol: To assess stability, the compound of interest is spiked into plasma at a concentration of 20 μg/mL. It is incubated at 37° C. for 0, 1, 2 3, 4, 5 hours in triplicate. At each time point, MeOH is added to a 96 well microtiter plate and then sample is added in a ratio of 1 part sample to 4 parts MeOH to quench the digestion reaction. Samples are mixed with multi-channel pipette or liquid handler. The plate is then centrifuged for 10 minutes and placed in an autosampler kept at 10° C. Samples are then injected into a mass spectrometer (API 3000, Applied Biosystems) equipped with an autosampler (Leap HTC Pal) and HPLC pumps (Shimadzu LC-10ADVP).

[4] = test system: GLP-1 cyclase, rat thyroid carcinoma cells (6-23); test: GLP-1 Cyclase (6-23) assay; type: cell-based; settings: cAMP, 6-23 cells; values marked **
Protocol: as §1, with “thyroid carcinoma” for “pancreas insulinoma”, “(6-23)” for “(RIN-m5F)”, “6-23” for “RIN-m5F”, “3.0×10^6” for “2.5×10^6”, “(3.0×10^4” for “(2.5×10^4”, “μl” for “microliter”

CC[C@H](C)[C@H](NC(=O)[C@H](Cc1ccccc1)NC(=O)[C@H](CCC(=O)O)NC(=O)[C@H](CCCCN)NC(=O)[C@H](C)NC(=O)[C@H](C)NC(=O)[C@H](CCC(N)=O)NC(=O)CNC(=O)[C@H](CCC(=O)O)NC(=O)[C@H](CC(C)C)NC(=O)[C@H](Cc1ccc(O)cc1)NC(=O)[C@H](CO)NC(=O)[C@H](CO)NC(=O)[C@@H](NC(=O)[C@H](CC(=O)O)NC(=O)[C@H](CO)NC(=O)[C@@H](NC(=O)[C@H](Cc1ccccc1)NC(=O)[C@@H](NC(=O)CNC(=O)[C@H](CCC(=O)O)NC(=O)[C@H](C)NC(=O)[C@@H](N)Cc1c[nH]cn1)[C@@H](C)O)[C@@H](C)O)C(C)C)C(=O)N[C@@H](C)C(=O)N[C@@H](Cc1c[nH]c2ccccc12)C(=O)N[C@@H](CC(C)C)C(=O)N[C@H](C(=O)N[C@@H](CCCCN)C(=O)NCC(=O)N[C@@H](CCCNC(=N)N)C(N)=O)C(C)C [Cmpd 3521, reference compound]
FOOD INTAKE at 60 min (NIH:Swiss mice; dose 1 mg/kg): −27% | GLU LOWERING AUC240 @80 nmol/kg (NH/Swiss mice; 80 nmol/kg): −9% @ | baseline plasma lactate level [1]: attenuated baseline plasma lactate level | left ventricle chamber size (LVEDD, LVESD) [1]: attenuates enlargement of left ventricle chamber size | insulin resistance / insulin sensitivity (fasting insulin, glucose, HOMA) ([1]; 12 hour fasting): attenuates insulin resistance and improves insulin sensitivity

CC[C@H](C)[C@H](NC(=O)[C@@H]1CCCN1C(=O)[C@@H](NC(=O)CNC(=O)CNC(=O)CNC(=O)[C@H](CCCNC(=N)N)NC(=O)CNC(=O)[C@H](CCCCN)NC(=O)[C@@H](NC(=O)[C@H](CC(C)C)NC(=O)[C@H](Cc1c[nH]c2ccccc12)NC(=O)[C@H](C)NC(=O)[C@@H](NC(=O)[C@H](Cc1ccccc1)NC(=O)[C@H](CCC(=O)O)NC(=O)[C@H](CCCCN)NC(=O)[C@H](C)NC(=O)[C@H](C)NC(=O)[C@H](CCC(N)=O)NC(=O)CNC(=O)[C@H](CCC(=O)O)NC(=O)[C@H](CC(C)C)NC(=O)[C@H](Cc1ccc(O)cc1)NC(=O)[C@H](CO)NC(=O)[C@H](CO)NC(=O)[C@@H](NC(=O)[C@H](CC(=O)O)NC(=O)[C@H](CO)NC(=O)[C@@H](NC(=O)[C@H](Cc1ccccc1)NC(=O)[C@@H](NC(=O)CNC(=O)[C@H](CCC(=O)O)NC(=O)[C@H](C)NC(=O)[C@@H](N)Cc1c[nH]cn1)[C@@H](C)O)[C@@H](C)O)C(C)C)[C@@H](C)CC)C(C)C)[C@@H](C)CC)C(N)=O [Cmpd 4957]
EC50 [2]: 0.51 nM | IC50 [3]: 0.1 nM

CC[C@H](C)[C@H](NC(=O)[C@H](Cc1ccccc1)NC(=O)[C@H](CCC(=O)O)NC(=O)[C@H](CCCCN)NC(=O)[C@H](C)NC(=O)[C@H](C)NC(=O)[C@H](CCCCN)NC(=O)[C@H](CCC(=O)O)NC(=O)[C@H](CCC(=O)O)NC(=O)[C@H](CC(C)C)NC(=O)[C@H](CCC(N)=O)NC(=O)[C@H](CCCCN)NC(=O)[C@H](CO)NC(=O)[C@H](CC(C)C)NC(=O)[C@H](CC(=O)O)NC(=O)[C@H](CO)NC(=O)[C@@H](NC(=O)[C@H](Cc1ccccc1)NC(=O)[C@@H](NC(=O)CNC(=O)[C@H](CCC(=O)O)NC(=O)CNC(=O)[C@@H](N)Cc1c[nH]cn1)[C@@H](C)O)[C@@H](C)O)C(=O)N[C@@H](CCC(=O)O)C(=O)N[C@@H](Cc1c[nH]c2ccccc12)C(=O)N[C@@H](CC(C)C)C(=O)N[C@@H](CCCCN)C(=O)N[C@@H](CCC(N)=O)C(=O)NCC(=O)NCC(=O)N1CCC[C@H]1C(=O)N[C@@H](CO)C(=O)N[C@@H](CO)C(=O)NCC(=O)N[C@@H](C)C(=O)N1CCC[C@H]1C(=O)N1CCC[C@H]1C(=O)N1CCC[C@H]1C(=O)N[C@@H](CO)C(N)=O [Cmpd 5100]
FOOD INTAKE at 60 min (NIH:Swiss mice; dose 10 nmol/kg): −66% | plasma stability as compared to native GLP-1 (Plasma stability): increased plasma stability | GLU LOWERING AUC240 @1 nmol/kg (NH/Swiss mice; 1 nmol/kg): −16% | IC50 [3]: 1.8 nM

HGEGTFTSDLVKILEAEAVRKFIEFLKNGGPSSGAPPPS-NH2 [Cmpd 5529]
EC50 [4]: 0.388 nM

HGEGTFTSDVTEYLEEEAVRLFIEWLKQGGPSSGAPPPS-NH2 [Cmpd 5129]
EC50 [2]: 1.09 nM | plasma stability as compared to native GLP-1 (Plasma stability): increased plasma stability | plasma stability as compared to native GLP-1 (Plasma stability; second, narrower list of b152): increased plasma stability | IC50 [3]: 3 nM
